Experimental findings from patent publication US11446282B2, “Methods of treating mixed dyslipidemia and hypertriglycertdemia” (Kowa Company, Ltd., priority 2017, dated 2022) are described below.

Series [1] deals with patients with dyslipidemia. The series is described as follows: Previous clinical trials of pemafibrate (healthy adults, patients with dyslipidemia). In kind it is in vivo, human. The method, then:
In previous clinical trials, pemafibrate has been administered at doses ranging from 0.1 mg to 1.6 mg per day in healthy adults. Doses up to 0.4 mg per day have been administered in patients with dyslipidemia. […] Increases in LDL-C, both by beta quantification and calculation with the Friedewald equation, were also observed. Based on analysis of efficacy variables, pemafibrate appeared to have a lowering effect on Apo C3 that led to the conversion of VLDL particles to LDL particles, increasing the fraction of larger LDL particles, and reducing TG levels. Similarly, the reduction of Apo C3 led to increased removal of remnant-like particles and lowering of Apo B48. […] The observed increases in Apo A1 and HDL-C resulted from both increased production of Apo A1 in the liver and increased turnover of TG-rich lipoproteins, both of which were associated with a decreased CHD risk.
Because the urinary excretion of pemafibrate is low, as shown by nonclinical and clinical studies, it is expected that pemafibrate can be used safely even in patients with renal impairment. In addition, because the drug has minimal inhibitory effects on major drug metabolizing enzymes in the liver, it is unlikely to cause drug-drug interactions; however, drugs which are strong organic anion-transporting polypeptide (OATP) inhibitors (e.g., cyclosporine and rifampin) do interact with pemafibrate.

Series [2] deals with major drug metabolizing enzymes in the liver. The series is described as follows: Inhibition of major drug metabolizing enzymes in the liver. In kind it is in vitro ADME.

Turning to `CC[C@@H](Oc1cccc(CN(CCCOc2ccc(OC)cc2)c2nc3ccccc3o2)c1)C(=O)O` [Pemafibrate, (2R)-2-[3-({1,3-benzoxazol-2-yl[3-(4-methoxyphenoxy)propyl]amino}methyl)phenoxy]butanoic acid], the TG change entry in series [1] (Japanese and European patients) is listed as “dose-dependent decreases”. The safety profile entry in series [1] (total daily doses 0.1 mg to 0.4 mg, daily or divided twice daily) was “acceptable safety profile”. Further, in series [2], the “inhibitory effects on major drug metabolizing enzymes in the liver” value was “minimal”.
